Reference: PubChem BioAssay (NCI)
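A five-concentration, 48-hour dose response in 96-well plates underlies each endpoint, interpolated linearly between surrounding concentrations. TGI denotes the concentration required for complete inhibition of growth.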

Tests used:
Experiment in all cases: NCI anticancer screen, dose series, 48 h
KM12 colon = test system: KM12 colon
DMS 273 small cell lung = test system: DMS 273 small cell lung
HCT-15 colon = test system: HCT-15 colon
SK-MEL-2 melanoma = test system: SK-MEL-2 melanoma
HCT-116 colon = test system: HCT-116 colon
M14 melanoma = test system: M14 melanoma
SF-295 CNS = test system: SF-295 CNS
DMS 114 small cell lung = test system: DMS 114 small cell lung
MOLT-4 leukemia = test system: MOLT-4 leukemia
HT29 colon = test system: HT29 colon
HCC-2998 colon = test system: HCC-2998 colon
SK-OV-3 ovarian = test system: SK-OV-3 ovarian
CAKI-1 renal = test system: CAKI-1 renal
786-0 renal = test system: 786-0 renal
HL-60(TB) leukemia = test system: HL-60(TB) leukemia
NCI-H226 lung = test system: NCI-H226 lung
CCRF-CEM leukemia = test system: CCRF-CEM leukemia
SN12C renal = test system: SN12C renal
HOP-62 NSCLC = test system: HOP-62 NSCLC
DLD-1 colon = test system: DLD-1 colon
SK-MEL-28 melanoma = test system: SK-MEL-28 melanoma
SF-268 CNS = test system: SF-268 CNS
ACHN renal = test system: ACHN renal
HOP-92 NSCLC = test system: HOP-92 NSCLC
NCI-H460 lung = test system: NCI-H460 lung
SNB-19 CNS = test system: SNB-19 CNS
LOX IMVI melanoma = test system: LOX IMVI melanoma
LXFL 529 NSCLC = test system: LXFL 529 NSCLC
OVCAR-4 ovarian = test system: OVCAR-4 ovarian
COLO 205 colon = test system: COLO 205 colon
SK-MEL-5 melanoma = test system: SK-MEL-5 melanoma
NCI-H522 lung = test system: NCI-H522 lung
XF 498 CNS = test system: XF 498 CNS
RXF 393 renal = test system: RXF 393 renal
SR leukemia = test system: SR leukemia
U251 CNS = test system: U251 CNS
RPMI-8226 leukemia = test system: RPMI-8226 leukemia
SNB-78 CNS = test system: SNB-78 CNS
HOP-18 NSCLC = test system: HOP-18 NSCLC
TK-10 renal = test system: TK-10 renal
UACC-257 melanoma = test system: UACC-257 melanoma
SW-620 colon = test system: SW-620 colon
OVCAR-5 ovarian = test system: OVCAR-5 ovarian
NCI-H23 lung = test system: NCI-H23 lung
SNB-75 CNS = test system: SNB-75 CNS
A549 NSCLC = test system: A549 NSCLC
MALME-3M melanoma = test system: MALME-3M melanoma
RXF-631 renal = test system: RXF-631 renal
SF-539 CNS = test system: SF-539 CNS
UACC-62 melanoma = test system: UACC-62 melanoma
OVCAR-3 ovarian = test system: OVCAR-3 ovarian
M19-MEL melanoma = test system: M19-MEL melanoma
EKVX NSCLC = test system: EKVX NSCLC
KM20L2 colon = test system: KM20L2 colon
OVCAR-8 ovarian = test system: OVCAR-8 ovarian
K-562 leukemia = test system: K-562 leukemia
A498 renal = test system: A498 renal
IGROV1 ovarian = test system: IGROV1 ovarian
UO-31 renal = test system: UO-31 renal

CN1NC(c2ccccc2)=C(C#N)C(=O)CC1c1ccccc1Cl (centres undefined)
TGI (KM12 colon): > 100 µM
TGI (DMS 273 small cell lung): > 100 µM
TGI (HCT-15 colon): > 100 µM
TGI (SK-MEL-2 melanoma): > 100 µM
TGI (HCT-116 colon): > 100 µM
TGI (M14 melanoma): > 100 µM
TGI (SF-295 CNS): > 100 µM
TGI (DMS 114 small cell lung): > 100 µM
TGI (MOLT-4 leukemia): > 100 µM
TGI (HT29 colon): > 100 µM
TGI (HCC-2998 colon): > 100 µM
TGI (SK-OV-3 ovarian): > 100 µM
TGI (CAKI-1 renal): > 100 µM
TGI (786-0 renal): > 100 µM
TGI (HL-60(TB) leukemia): > 100 µM
TGI (NCI-H226 lung): > 100 µM
TGI (CCRF-CEM leukemia): > 100 µM
TGI (SN12C renal): > 100 µM
TGI (HOP-62 NSCLC): 94.1 µM
TGI (DLD-1 colon): > 100 µM
TGI (SK-MEL-28 melanoma): > 100 µM
TGI (SF-268 CNS): > 100 µM
TGI (ACHN renal): > 100 µM
TGI (HOP-92 NSCLC): > 100 µM
TGI (NCI-H460 lung): > 100 µM
TGI (SNB-19 CNS): > 100 µM
TGI (LOX IMVI melanoma): > 100 µM
TGI (LXFL 529 NSCLC): > 100 µM
TGI (OVCAR-4 ovarian): > 100 µM
TGI (COLO 205 colon): > 100 µM
TGI (SK-MEL-5 melanoma): > 100 µM
TGI (NCI-H522 lung): > 100 µM
TGI (XF 498 CNS): > 100 µM
TGI (RXF 393 renal): > 100 µM
TGI (SR leukemia): > 100 µM
TGI (U251 CNS): > 100 µM
TGI (RPMI-8226 leukemia): > 100 µM
TGI (SNB-78 CNS): > 100 µM
TGI (HOP-18 NSCLC): > 100 µM
TGI (TK-10 renal): > 100 µM
TGI (UACC-257 melanoma): > 100 µM
TGI (SW-620 colon): > 100 µM
TGI (OVCAR-5 ovarian): > 100 µM
TGI (NCI-H23 lung): > 100 µM
TGI (SNB-75 CNS): > 100 µM
TGI (A549 NSCLC): > 100 µM
TGI (MALME-3M melanoma): > 100 µM
TGI (RXF-631 renal): > 100 µM

O=c1c2cc(-c3ccccc3)sc2nc2sc(-c3ccccc3)nn12
TGI (SF-539 CNS): > 100 µM
TGI (UACC-62 melanoma): > 100 µM
TGI (KM12 colon): > 100 µM
TGI (DMS 273 small cell lung): > 100 µM
TGI (HCT-15 colon): > 100 µM
TGI (SK-MEL-2 melanoma): > 100 µM
TGI (HCT-116 colon): > 100 µM
TGI (M14 melanoma): > 100 µM
TGI (SF-295 CNS): > 100 µM
TGI (DMS 114 small cell lung): > 100 µM
TGI (MOLT-4 leukemia): > 100 µM
TGI (HT29 colon): > 100 µM
TGI (SK-OV-3 ovarian): > 100 µM
TGI (CAKI-1 renal): > 100 µM
TGI (786-0 renal): > 100 µM
TGI (HL-60(TB) leukemia): > 100 µM
TGI (NCI-H226 lung): > 100 µM
TGI (CCRF-CEM leukemia): > 100 µM
TGI (SN12C renal): > 100 µM
TGI (HOP-62 NSCLC): > 100 µM
TGI (DLD-1 colon): > 100 µM
TGI (SF-268 CNS): > 100 µM
TGI (OVCAR-3 ovarian): > 100 µM
TGI (M19-MEL melanoma): > 100 µM
TGI (HOP-92 NSCLC): > 100 µM
TGI (NCI-H460 lung): > 100 µM
TGI (SNB-19 CNS): > 100 µM
TGI (LOX IMVI melanoma): > 100 µM
TGI (LXFL 529 NSCLC): > 100 µM
TGI (OVCAR-4 ovarian): > 100 µM
TGI (COLO 205 colon): > 100 µM
TGI (SK-MEL-5 melanoma): > 100 µM
TGI (NCI-H522 lung): > 100 µM
TGI (XF 498 CNS): > 100 µM
TGI (RXF 393 renal): > 100 µM
TGI (SR leukemia): > 100 µM
TGI (U251 CNS): > 100 µM
TGI (RPMI-8226 leukemia): > 100 µM
TGI (SNB-78 CNS): > 100 µM
TGI (EKVX NSCLC): > 100 µM
TGI (HOP-18 NSCLC): > 100 µM
TGI (KM20L2 colon): > 100 µM
TGI (TK-10 renal): > 100 µM
TGI (UACC-257 melanoma): > 100 µM
TGI (SW-620 colon): > 100 µM
TGI (OVCAR-8 ovarian): > 100 µM
TGI (OVCAR-5 ovarian): > 100 µM
TGI (K-562 leukemia): > 100 µM
TGI (NCI-H23 lung): > 100 µM
TGI (A498 renal): > 100 µM
TGI (IGROV1 ovarian): > 100 µM
TGI (SNB-75 CNS): > 100 µM
TGI (A549 NSCLC): > 100 µM
TGI (MALME-3M melanoma): > 100 µM
TGI (RXF-631 renal): > 100 µM
TGI (UO-31 renal): > 100 µM
